Laboratory results: ChEMBL document CHEMBL1201862, “PubChem BioAssay data set” (2004)
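Following 48 hours of exposure in 96-well plates, responses at five concentrations were used to interpolate endpoints linearly. The concentration for 50% growth inhibition is given as GI50.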 Active and inactive are the calls of the source. No stated cut-off is given here; in the data, active = GI50 up to about 1.1 µM and inactive = higher.

Legend:
Assay in all cases: DTP human tumour cell line panel, 48 h
[1] = test system: 786-0
[2] = test system: A498
[3] = test system: A549
[4] = test system: ACHN
[5] = test system: CCRF-CEM
[6] = test system: COLO 205
[7] = test system: DU-145
[8] = test system: EKVX
[9] = test system: HCC 2998
[10] = test system: HCT-116
[11] = test system: HCT-15
[12] = test system: HL-60
[13] = test system: HOP-62
[14] = test system: HOP-92
[15] = test system: HT-29
[16] = test system: Hs-578T
[17] = test system: IGROV-1
[18] = test system: K562
[19] = test system: KM12
[20] = test system: LOX IMVI
[21] = test system: M14
[22] = test system: MCF7
[23] = test system: MDA-MB-231
[24] = test system: MDA-MB-435
[25] = test system: MDA-N
[26] = test system: MOLT-4
[27] = test system: Malme-3M
[28] = test system: NCI-H226
[29] = test system: NCI-H23
[30] = test system: NCI-H460
[31] = test system: NCI-H522
[32] = test system: NCI/ADR-RES
[33] = test system: OVCAR-4
[34] = test system: OVCAR-5
[35] = test system: OVCAR-8
[36] = test system: PC-3
[37] = test system: RPMI-8226
[38] = test system: RXF 393
[39] = test system: SF-268
[40] = test system: SF-295
[41] = test system: SF-539
[42] = test system: SK-MEL-28
[43] = test system: SK-MEL-2
[44] = test system: SK-MEL-5
[45] = test system: SK-OV-3
[46] = test system: SN12C
[47] = test system: SNB-19
[48] = test system: SNB-75
[49] = test system: SR
[50] = test system: SW-620
[51] = test system: T47D
[52] = test system: TK-10
[53] = test system: U-251
[54] = test system: UACC-257
[55] = test system: UACC-62
[56] = test system: UO-31
[57] = test system: BT-549
[58] = test system: OVCAR-3

For `Cc1nc2c(nc1C)-c1[nH]c3c(c1C(=O)C2=O)CCCC3=O`, the GI50 [1] was 2540 nM (inactive), the GI50 [2] was 8300 nM (inactive) and the GI50 [3] was 3870 nM (inactive). For the same compound, the GI50 [4] was 2640 nM (inactive), the GI50 [5] was 1910 nM (inactive) and the GI50 [6] was 2880 nM (inactive). For the same compound, the GI50 [7] was 4490 nM (inactive), the GI50 [8] was 1480 nM (inactive) and the GI50 [9] was 2080 nM (inactive). For the same compound, the GI50 [10] was 2540 nM (inactive), the GI50 [11] was 2810 nM and the GI50 [12] was 2420 nM (inactive). The GI50 [13] was 2320 nM (inactive), the GI50 [14] was 1690 nM (inactive) and the GI50 [15] was 5740 nM (inactive). For the same compound, the GI50 [16] was 3660 nM (inactive), the GI50 [17] was 2550 nM (inactive) and the GI50 [18] was 2030 nM (inactive). The GI50 [19] was 1950 nM (inactive), the GI50 [20] was 957 nM (active) and the GI50 [21] was 1770 nM (inactive). The GI50 [22] was 1380 nM (inactive), the GI50 [23] was 1590 nM (inactive) and the GI50 [24] was 483 nM (active). For the same compound, the GI50 [25] was 685 nM (active), the GI50 [26] was 2230 nM (inactive) and the GI50 [27] was 1290 nM (inactive). For the same compound, the GI50 [28] was 1620 nM (inactive), the GI50 [29] was 1930 nM (inactive) and the GI50 [30] was 3940 nM (inactive). The GI50 [31] was 2100 nM (inactive), the GI50 [32] was 2250 nM (inactive) and the GI50 [33] was 1600 nM (inactive). For the same compound, the GI50 [34] was 2180 nM (inactive), the GI50 [35] was 1500 nM (inactive) and the GI50 [36] was 4250 nM (inactive). For the same compound, the GI50 [37] was 1250 nM (inactive), the GI50 [38] was 516 nM (active) and the GI50 [39] was 1470 nM (inactive). The GI50 [40] was 1790 nM (inactive), the GI50 [41] was 1680 nM (inactive) and the GI50 [42] was 1710 nM (inactive). The GI50 [43] was 1790 nM (inactive), the GI50 [44] was 1490 nM (inactive) and the GI50 [45] was 2400 nM (inactive). For the same compound, the GI50 [46] was 1770 nM (inactive), the GI50 [47] was 2330 nM (inactive) and the GI50 [48] was 1770 nM (inactive). For the same compound, the GI50 [49] was 2080 nM (inactive), the GI50 [50] was 1950 nM (inactive) and the GI50 [51] was 592 nM (active). For the same compound, the GI50 [52] was 17500 nM (inactive), the GI50 [53] was 1340 nM (inactive) and the GI50 [54] was 2020 nM (inactive). The GI50 [55] was 1710 nM (inactive) and the GI50 [56] was 4020 nM (inactive).
In the case of `C/C(=N\c1ccc(Cl)c(Cl)c1)c1ccncc1`, the GI50 [1] is reported as > 100000 nM (inactive), the GI50 [57] is reported as > 100000 nM (inactive) and the GI50 [5] is reported as > 100000 nM (inactive). For the same compound, the GI50 [6] was > 100000 nM (inactive), the GI50 [9] was > 10000 nM (inactive) and the GI50 [10] was > 100000 nM (inactive). The GI50 [13] was > 100000 nM (inactive), the GI50 [14] was > 100000 nM (inactive) and the GI50 [15] was > 100000 nM (inactive). For the same compound, the GI50 [16] was > 100000 nM (inactive), the GI50 [18] was > 100000 nM (inactive) and the GI50 [19] was > 100000 nM (inactive). The GI50 [20] was > 100000 nM (inactive), the GI50 [21] was > 100000 nM (inactive) and the GI50 [23] was > 100000 nM (inactive). For the same compound, the GI50 [25] was > 100000 nM (inactive), the GI50 [26] was > 100000 nM (inactive) and the GI50 [28] was > 100000 nM (inactive). For the same compound, the GI50 [29] was > 100000 nM (inactive), the GI50 [30] was > 100000 nM (inactive) and the GI50 [31] was > 100000 nM (inactive). For the same compound, the GI50 [32] was > 100000 nM (inactive), the GI50 [58] was > 100000 nM (inactive) and the GI50 [33] was > 100000 nM (inactive). For the same compound, the GI50 [35] was > 100000 nM (inactive), the GI50 [36] was > 100000 nM (inactive) and the GI50 [38] was > 100000 nM (inactive). The GI50 [39] was > 100000 nM (inactive), the GI50 [40] was > 100000 nM (inactive) and the GI50 [42] was > 100000 nM (inactive). For the same compound, the GI50 [45] was > 100000 nM (inactive), the GI50 [46] was > 100000 nM (inactive) and the GI50 [47] was > 100000 nM (inactive). For the same compound, the GI50 [48] was > 100000 nM (inactive), the GI50 [50] was > 100000 nM (inactive) and the GI50 [52] was > 100000 nM (inactive). For the same compound, the GI50 [53] was > 100000 nM (inactive) and the GI50 [55] was > 100000 nM (inactive).
